Results on three molecules are retold here after patent US12485134B2, “Use of nicotinamide riboside, nicotinic acid riboside, reduced nicotinyl riboside compounds, and nicotinyl riboside compound derivatives in formulations” (ChromaDex Inc., priority 2019, dated 2025).

Data set [1] has as its system milk concentrate proteins. Kind of data set: WaterLOGSY NMR binding of NR-Cl. As to conditions: milk concentrate, pH 7.0. The method, then:
(§1) WaterLOGSY is a sensitive ligand-observed NMR experiment designed for the screening of protein ligands from a mixture of potential binders. […] The experiment relies on fast dissociation of bound ligands to carry into the free state magnetisation originating from irradiated water that has been transmitted via the protein complex.
(§2) NMR samples for WaterLOGSY were prepared as follows. Ligand-detect WaterLOGSY experiments were carried at 600 MHz with 5-mm cryoprobe and using 5-mm NMR tubes. Each NMR sample for WaterLOGSY contained ˜0.05 mg (˜0.35 mM), using unlabeled ligand NR-Cl (“NR”), in a NMR buffer containing ˜0.5 mL 90% H2O/10% ^2H2O at pH 7.0 with or without the milk and soy protein mix (compared to the WaterLOGSY of NR as a negative control). Protein was added as a powder with a minimal 15 to 50 μM concentration. Typically, the final NMR sample of protein-compound mixtures had >20-fold higher compound concentration of ligand compared to that of the protein. Denatured samples were prepared by simply heating (80° C. for 15-20 mins) the aqueous (5-10% ^2H2O) protein mixture (in absence of NR).
The NR only WaterLOGSY spectrum (FIG. 23) was the negative control to screen for any potential binding of NR-Cl to milk concentrate and soy isolate proteins as shown herein and discussed below.

For data set [2] the following is noted: mice on a high-fat diet supplemented with NR; cited from earlier work.
Data set [3] in a line: Recovery of NR added to store bought (cow) milk, HILIC/HPLC/UV. In kind it is physicochemical. The note with it: cow's milk and human breast milk. As for the experimental part:
Nicotinamide riboside (NR, I) is also naturally found in milk. […] FIGS. 2B and 2C are control chromatograms showing detection of nicotinamide riboside (NR, I) after adding nicotinamide riboside (NR, I) to the milk sample at a known amount. […] The calculated recovery of the 1% nicotinamide riboside (NR, I) was close to 100%. […] Centrifugation was then performed to remove any precipitate, and the supernatant was analyzed using an HILIC/HPLC/UV using standard methods.

The subject of data set [4] is protein components of a meal replacement beverage. Kind of data set: WaterLOGSY NMR binding of NR-Cl. As to conditions: meal replacement beverage containing soy protein isolate and milk protein concentrate. As for the experimental part:
as §1, §2
The beverage that was tested contained soy protein isolate and milk protein concentrate and it could only be either of these ingredients that could contribute to the positive result that was observed. […]

A further data set relates to milk proteins. Nature of the data set: WaterLOGSY NMR, direct binding of 15N-labeled NR to milk proteins. As to conditions: no milk, 150 μL and 300 μL of milk. The text has this:
Whey protein fraction and casein protein have been identified as leading candidates to bind directly to and stabilize nicotinamide riboside (NR, I) in milk. The addition of these proteins in particular (either alone or in combination with other proteins and/or vitamins) in order to stabilize nicotinamide riboside (NR, I) in liquid constitutes another embodiment of a method of delivery of the present invention. […] In this experiment, Water-Ligand Observed via Gradient Spectroscopy (WaterLOGSY NMR) was used to detect direct binding of stable, isotope-labeled (^15N) nicotinamide riboside (NR, I) to milk proteins. This is visualized as a concentration-dependent shift in the nicotinamide riboside (NR, I) spectra with increasing additions of milk. The concentric shapes shifts from left to right are the results of addition of no milk, 150 μL of milk, and 300 μL of milk, respectively.

Data set [5] relates to hydrolyzed whey protein isolate. Kind of data set: NR-Cl binding to hydrolyzed whey protein isolate (10 kDa cutoff filtration, unbound NR-Cl in filtrate by HPLC). The note with it: hydrolyzed whey protein isolate solutions, ambient and refrigerated. The method, then:
A. Solutions of hydrolyzed whey protein isolate (>90% protein, 2-7% degree of hydrolysis) were prepared at varying concentrations and filtered through 0.2 μm sterile filters. An aliquot of sterile nicotinamide riboside chloride (“NR-Cl,” a salt of NR, I) in water solution was spiked into the sterile whey solutions, targeting a final NR-Cl concentration of 1 mmol per liter (0.3 mg/mL). The solutions containing the mixture of hydrolyzed whey and NR-Cl were filtered through 10 kDa molecular weight cutoff centrifuge filters to remove the whey proteins (14-80 kDa) and any NR-Cl that was bound to the proteins. Any NR-Cl that was not bound to the whey proteins was recovered in the filtrate and quantitated by HPLC.
The solutions of hydrolyzed whey protein isolate and NR-Cl were stored at ambient and refrigerated conditions and analyzed at various timepoints for NR-Cl protein binding and stability.
A study measuring the stability of NR-Cl in hydrolyzed and non-hydrolyzed whey protein was conducted with 2 mmol/L NR-Cl (0.6 mg/mL) and 20 mg/mL protein (33.3:1 wt:wt protein:NR-Cl). […] (See Table 5).

Data set [6] can be described thus: Degradation tracking of 15N NR-Cl to 15N nicotinamide by 15N-1H HMBC and 1H NMR, with or without whey protein. In kind it is physicochemical. As for the experimental part:
A series of 1D ^1H and 1D ^15N-^1H HMBC experiments were collected on a 600 MHz Bruker instrument with 5-mm cryoprobe and using 5-mm NMR tubes. Each sample contains ˜10 mM ^15N isotope labeled NR-Cl (or non-isotope), in a solution containing ˜0.5 mL 90% H2O/10% ^2H2O buffered at pH values of 7.0 (5 mM PBS) and 9.0 (50 mM Glycine/Sodium hydroxide), with or without whey protein. The NMR tube was incubated at 25° C. and data collected at 1, 3 and 7 days. The NMR results provided evidence of binding to milk and soy protein and provided evidence of increased stability in combination with Whey protein at different pH over a 7 day time-course.
FIG. 22 highlights the corresponding ^1H-NMR data for the increased stability of the NR-Cl at day 7 under pH 7 and 9 buffered conditions, compared to control.
The integrations for the peaks corresponding to ^15N NR-Cl and ^15N nicotinamide were measured for the degradation that had occurred to ^15N—NR-Cl from Day 1 to Day 7. […] The half-life for ^15N NR-Cl in buffered pH 9 conditions- improved from 2.7 days (control) to 10 days in the presence of Whey protein.

Take `NC(=O)c1ccc[n+]([C@@H]2O[C@H](CO)[C@@H](O)[C@H]2O)c1` [NR, Nicotinamide riboside]: the WaterLOGSY binding result was “comparatively weaker binding” in data set [1] and “strongest evidence of NR binding” in data set [4]. Also, the less weight gained in data set [2] is listed as 40%. In addition, the stability in milk entry in data set [3] is reported as “stable in milk”. Also, the “direct binding to milk proteins (WaterLOGSY, concentration-dependent shift)” value in the data set on milk proteins was “binds to proteins in milk”.
With `NC(=O)c1cccnc1` [nicotinamide], the binding to whey entry in data set [5] is “not observed to bind”.
A word on the half-life: it is the time in which the quantity being followed falls by half. In the case of `NC(=O)c1ccc[15n+]([C@@H]2O[C@H](CO)[C@@H](O)[C@H]2O)c1` [^15N NR-Cl, ^15N-labeled nicotinamide riboside chloride], the half-life in data set [6] (PBS buffer with whey protein, buffered pH 7, 25° C., in the presence of Whey protein) is 672 h; in data set [6] (PBS buffer without whey protein (control), buffered pH 7, 25° C., control (without Whey protein)), 81.6 h; in data set [6] (buffered pH 9, 25° C., control (without Whey protein)), 64.8 h; in data set [6] (glycine/sodium hydroxide buffer with whey protein, buffered pH 9, 25° C., in the presence of Whey protein), 240 h. Moreover, the “rate of degradation in the presence of Whey protein” value in data set [6] (pH 7.0 and 9.0, days 1, 3 and 7) was “slower than the control”.
